Measured values from paper PMC9698483, “Berbamine Reduces Chloroquine-Induced Itch in Mice through Inhibition of MrgprX1” (International Journal of Molecular Sciences, 2022).
One block for each molecule: values may come before it.

Assays:
MrgprX1 = molecular target: T1, MrgprX1 (Homo sapiens, UniProt Q96LB2); test: Intracellular calcium measurement (Fluo-4 NW) in HEK293T cells expressing MrgprX1; type: cell-based
T1 construct: expressed in transfected cells
Procedure: To identify novel antagonists of MrgprX1, a cell-based screening assay was established. […] Cells were treated with the indicated concentrations of CQ where the arrow indicates. (B) Summary of dose-response (mean ± S.E., n = 6). (C) Representative Fluo−4 fluorescence traces of MrgprX1 antagonist screening. Cells were treated with 30 μM of the test compounds for 10 min prior to treatment with 300 μM CQ.
Figure 2 Effect of berbamine and closantel on CQ- and ionomycin-induced increases in intracellular calcium levels: (A,B) Intracellular calcium levels were measured using Fluo−4 NW in HEK293T cells expressing MrgprX1. The cells were pretreated with the indicated concentrations of berbamine (BBM) and closantel (CLS) for 10 min prior to treatment with 300 μM CQ. (C) Summary of dose-response (mean ± S.E., n = 6). […] The cells were pretreated with the indicated concentrations of BBM and CLS for 10 min before treatment with ionomycin. (F) Summary of dose–response (mean ± S.E., n = 6).
Intracellular calcium levels were measured using a Fluo-4 NW calcium assay kit (Invitrogen, Carlsbad, CA) as per the manufacturer’s protocol in HEK293T and HT29 cells. Briefly, the cells were plated in a 96-well black-walled plate and incubated with 100 μL of assay buffer including Fluo-4 NW. […] Intracellular calcium increase was induced with the application of the indicated agonist. All modulators were dissolved in DMSO, and cells were treated with a final concentration of 1% DMSO.

HEK293T cells = test: Ionomycin-induced increase in intracellular calcium levels in HEK293T cells; type: cell-based; settings: 10 μM ionomycin, 10 min pretreatment
Procedure: To investigate whether berbamine and closantel affect calcium signaling pathways, we observed the effects of berbamine and closantel on CQ- and ionomycin-induced increases in intracellular calcium concentrations in HEK-MrgprX1 and HEK293T cells, respectively.
Figure 2 Effect of berbamine and closantel on CQ- and ionomycin-induced increases in intracellular calcium levels: (A,B) Intracellular calcium levels were measured using Fluo−4 NW in HEK293T cells expressing MrgprX1. The cells were pretreated with the indicated concentrations of berbamine (BBM) and closantel (CLS) for 10 min prior to treatment with 300 μM CQ. (C) Summary of dose-response (mean ± S.E., n = 6). (D,E) Intracellular calcium levels were increased with 10 μM ionomycin in HEK239T cells. The cells were pretreated with the indicated concentrations of BBM and CLS for 10 min before treatment with ionomycin. (F) Summary of dose–response (mean ± S.E., n = 6).
(§1) Intracellular calcium levels were measured using a Fluo-4 NW calcium assay kit (Invitrogen, Carlsbad, CA) as per the manufacturer’s protocol in HEK293T and HT29 cells. […] After 1 h of incubation, Fluo-4 fluorescence was recorded with a FLUOstar Omega microplate reader equipped with syringe pumps and custom Fluo-4 excitation/emission filters (485/538 nm). […]

PAR2 = molecular target: T2, PAR2 (Homo sapiens, UniProt P55085); test: PAR2-AP-induced activation of PAR2 in HT29 cells (calcium); type: cell-based; settings: 30 μM compound, 10 min prior to 30 μM PAR2-AP
T2 construct: endogenous in cells; host or cells: HT29
T2 sequence (P55085 26-397): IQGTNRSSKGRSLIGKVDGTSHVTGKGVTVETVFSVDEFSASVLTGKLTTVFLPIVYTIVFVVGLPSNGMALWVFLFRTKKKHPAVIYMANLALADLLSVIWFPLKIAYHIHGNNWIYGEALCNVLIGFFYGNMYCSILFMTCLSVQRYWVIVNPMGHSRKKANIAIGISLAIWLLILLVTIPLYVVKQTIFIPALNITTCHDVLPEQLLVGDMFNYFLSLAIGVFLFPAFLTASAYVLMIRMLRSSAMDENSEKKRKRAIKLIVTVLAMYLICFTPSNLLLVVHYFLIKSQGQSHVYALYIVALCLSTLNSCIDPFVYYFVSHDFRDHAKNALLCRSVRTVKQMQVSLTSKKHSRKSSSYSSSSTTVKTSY
Procedure: (§2) To investigate the effect of berbamine on other pruritogenic GPCRs, we observed the effect of berbamine on histamine H1 receptor (H1R), histamine H4 receptor (H4R), MrgprC11, MrgprX4, PAR2, and TGR5.
(§3) Figure 3 Effects of berbamine on the activity of other pruritogenic GPCRs: (A,B) Effect of berbamine on histamine 1 receptor (H1R) and histamine 4 receptor (H4R). H1R- and H4R-expressing HEK293T cells were pretreated with 30 μM BBM for 10 min prior to 100 μM histamine treatment. […] (C) Effect of berbamine on PAR2. HT29 cells were pretreated with BBM for 10 min prior to 30 μM PAR2-AP treatment. […] (D) Effect of berbamine on MrgprC11. MrgprC11-expressing HEK293T cells were pretreated with BBM for 10 min prior to 100 μM […] treatment. (E) Effect of berbamine on MrgprX4. MrgprX4-expressing HEK293T cells were pretreated with BBM for 10 min prior to 80 μM DCA treatment. (F) Effect of berbamine on TGR5. TGR5 activity was measured using a YFP fluorescence quenching assay. CHO-K1 cells coexpressing TGR5 and a halide sensor YFP were pretreated with BBM and 80 μM DCA for 10 min prior to I^- treatment. Results were summarized as means ± S.E. (n = 6). NTC, nontransfected cells.
(§4) Intracellular calcium levels were measured using a Fluo-4 NW calcium assay kit (Invitrogen, Carlsbad, CA) as per the manufacturer’s protocol in HEK293T and HT29 cells. […]

MrgprX1 or MrgprA3 = test system: MrgprX1 or MrgprA3; design: method as in PMID 16510108, PMID 32536619; settings: read-out: IC50 (potency as antagonist); cited from earlier work
CQ-induced itch = test system: CQ-induced itch; design: method as in PMID 16510108, PMID 32536619, PMID 35066892; settings: cited from earlier work
histamine-induced itch = test system: histamine-induced itch; design: method as in PMID 16510108, PMID 32536619, PMID 35066892; settings: cited from earlier work
[1] = test system: ERK1/2 phosphorylation through MrgprX1; test: Immunoblot of ERK1/2 phosphorylation in HEK293T cells expressing MrgprX1; type: cell-based, human; settings: HEK-MrgprX1 cells
MrgprA3 = molecular target: T3, MrgprA3 (Mus musculus, UniProt Q91WW3); test: Intracellular calcium measurement in HEK293T cells expressing mouse MrgprA3; type: cell-based; settings: HEK293T cells overexpressing MrgprA3; read-out: EC50 of MrgprA3 activation
T3 construct: expressed in transfected cells; host or cells: HEK293T
T3 sequence (Q91WW3 1-302): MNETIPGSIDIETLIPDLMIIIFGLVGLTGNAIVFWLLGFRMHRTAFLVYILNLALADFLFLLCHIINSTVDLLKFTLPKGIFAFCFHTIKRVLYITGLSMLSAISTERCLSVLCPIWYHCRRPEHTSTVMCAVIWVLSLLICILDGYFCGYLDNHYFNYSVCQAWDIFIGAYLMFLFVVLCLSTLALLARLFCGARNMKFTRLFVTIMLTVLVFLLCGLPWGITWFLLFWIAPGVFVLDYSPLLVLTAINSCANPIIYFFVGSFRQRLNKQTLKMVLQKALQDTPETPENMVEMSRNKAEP
Procedure: MRGPRA3 and MRGPRC11 are mouse orthologs of human MRGPRX1, and MrgprA3 is also activated by CQ, resulting in CQ-induced pruritus. To investigate the inhibitory effect of berbamine on MrgprA3, we established HEK293T cells overexpressing MrgprA3. […] We further investigated whether berbamine inhibited CQ-induced ERK1/2 phosphorylation in HEK-MrgprA3 cells. Strong and significant ERK1/2 phosphorylation was observed following CQ application, and ERK1/2 phosphorylation peaked 5 min after CQ treatment (Figure 6A,B).
Figure 5 Effect of berbamine on CQ-induced activation of MrgprA3: (A) Intracellular calcium levels were measured in HEK293T cells expressing mouse MrgprA3. Cells were treated with indicated concentrations of CQ. (B) Summary of dose–response (mean ± S.E., n = 6). (C) Cells were pretreated with indicated concentrations of berbamine for 10 min prior to 300 μM CQ treatment. (D) Summary of dose-response (mean ± S.E., n = 6). (E) Representative traces of intracellular calcium responses to BAM8−22 in HEK293T cells expressing MrgprC11. […]
as §1

[2] = test system: ERK1/2 phosphorylation through MrgprA3; test: Immunoblot of ERK1/2 phosphorylation in HEK293T cells expressing MrgprA3; type: cell-based, mouse; settings: HEK-MrgprA3 cells
[3] = test system: CQ-resistant strain of P. falciparum; design: method as in doi:10.1002/ddr.430300405; settings: in vitro, compound alone; read-out: IC50 antimalaria effect, CQ-resistant strain; cited from earlier work
[4] = molecular target: T4, histamine H1 receptor (H1R) (Homo sapiens, UniProt P35367); test: Histamine-induced activation of H1R in H1R-expressing HEK293T cells (calcium); type: cell-based; settings: 30 μM compound, 10 min prior to 100 μM histamine
T4 construct: expressed in transfected cells; host or cells: HEK293T
Procedure: as §2, §3, §4

T1 sequence (Q96LB2 whole entry): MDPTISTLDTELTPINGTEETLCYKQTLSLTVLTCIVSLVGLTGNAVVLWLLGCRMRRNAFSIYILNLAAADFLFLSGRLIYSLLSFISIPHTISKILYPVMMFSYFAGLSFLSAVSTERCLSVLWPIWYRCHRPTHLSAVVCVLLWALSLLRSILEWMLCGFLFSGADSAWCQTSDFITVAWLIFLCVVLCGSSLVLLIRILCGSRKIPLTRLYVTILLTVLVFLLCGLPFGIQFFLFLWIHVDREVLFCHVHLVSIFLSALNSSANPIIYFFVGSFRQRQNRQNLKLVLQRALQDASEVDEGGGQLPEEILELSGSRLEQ
T4 sequence (P35367 whole entry, species assumed): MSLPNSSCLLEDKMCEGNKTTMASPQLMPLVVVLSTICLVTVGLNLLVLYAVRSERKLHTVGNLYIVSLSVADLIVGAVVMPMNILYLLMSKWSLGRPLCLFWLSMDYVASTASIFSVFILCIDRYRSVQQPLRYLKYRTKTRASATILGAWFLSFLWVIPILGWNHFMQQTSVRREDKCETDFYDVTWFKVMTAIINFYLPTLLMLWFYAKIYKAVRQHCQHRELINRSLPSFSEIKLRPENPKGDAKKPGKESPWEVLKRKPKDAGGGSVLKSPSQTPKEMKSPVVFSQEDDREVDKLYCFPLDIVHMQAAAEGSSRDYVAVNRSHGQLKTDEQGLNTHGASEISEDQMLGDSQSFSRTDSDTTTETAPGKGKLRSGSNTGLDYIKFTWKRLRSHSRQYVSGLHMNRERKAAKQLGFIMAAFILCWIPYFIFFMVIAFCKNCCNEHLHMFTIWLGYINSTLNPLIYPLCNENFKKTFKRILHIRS

Compound: Cc1cc(C(C#N)c2ccc(Cl)cc2)c(Cl)cc1NC(=O)c1cc(I)cc(I)c1O (stereo not shown) [closantel, reference compound]
- inhibition at 30 µM (MrgprX1; HEK-293T, read-out: inhibition of the CQ-induced activation of MrgprX1 (screening)): > 90%
- IC50 (MrgprX1; pretreated 10 min prior to 300 μM CQ, read-out: IC50 of inhibition of CQ-induced MrgprX1 activation): 3.6 µM
- effect on ionomycin-induced increase in intracellular calcium levels (HEK293T cells): inhibited it in a dose-dependent manner

Compound: O=C1O[C@H]2[C@@H]3OC(=O)c4cc(O)c(O)c(O)c4-c4c(O)c(O)c5oc(=O)c6c(c(O)c(O)c7oc(=O)c4c5c76)-c4c(cc(O)c(O)c4O)C(=O)OC[C@H]3OC(O)[C@@H]2OC(=O)c2cc(O)c(O)c(O)c2-c2c1cc(O)c(O)c2O (mixture of isomers) [punicalagin, reference compound]
- effect on PAR2-AP-induced activation of PAR2 (PAR2): significantly blocked

Compound: CC=CC(=O)N(CC)c1ccccc1C (mixture of isomers) [crotamiton]
- IC50 (MrgprX1 or MrgprA3): 326 µM
- effect on CQ-induced itch (CQ-induced itch): inhibits
- effect on histamine-induced itch (histamine-induced itch): inhibits

Compound: CCN(CC)CCCC(C)Nc1ccnc2cc(Cl)ccc12 (stereo not shown) [CQ, Chloroquine]
- EC50 (MrgprX1; HEK-MrgprX1 cells, Fluo-4, read-out: EC50 of increase in intracellular calcium levels (MrgprX1 activation)): 96 µM
- time of peak ERK1/2 phosphorylation after treatment [1]: 10 min
- EC50 (MrgprA3): 234 µM
- time of peak ERK1/2 phosphorylation after treatment [2]: 5 min
- IC50 [3]: 0.203 ± 0.0707 µM

- effect on histamine-induced activation of H1R [4]: significantly blocked
Compound: CN1CCC(=C2c3ccccc3CCn3c(C=O)cnc32)CC1 [alcaftadine, reference compound]
